According to patent US8597903B2, “Biotinidase assay” (Wallac Oy, priority 2009, dated 2013):

Key:
[1] = target: T1, biotinidase (Homo sapiens, UniProt P43251); assay: Heterogenous biotinidase assay (DELFIA); assay type: biochemical; settings: 10 nM substrate, blood spots, +37° C. for 2 hours, Eu signal by time-resolved fluorometer (FIG. 1-3)
T1 construct: The blood spots (diameter 3.2 mm) were punched to the wells; from tissue; host or cells: dried blood spots (whole blood)
T1 sequence (P43251 22-523): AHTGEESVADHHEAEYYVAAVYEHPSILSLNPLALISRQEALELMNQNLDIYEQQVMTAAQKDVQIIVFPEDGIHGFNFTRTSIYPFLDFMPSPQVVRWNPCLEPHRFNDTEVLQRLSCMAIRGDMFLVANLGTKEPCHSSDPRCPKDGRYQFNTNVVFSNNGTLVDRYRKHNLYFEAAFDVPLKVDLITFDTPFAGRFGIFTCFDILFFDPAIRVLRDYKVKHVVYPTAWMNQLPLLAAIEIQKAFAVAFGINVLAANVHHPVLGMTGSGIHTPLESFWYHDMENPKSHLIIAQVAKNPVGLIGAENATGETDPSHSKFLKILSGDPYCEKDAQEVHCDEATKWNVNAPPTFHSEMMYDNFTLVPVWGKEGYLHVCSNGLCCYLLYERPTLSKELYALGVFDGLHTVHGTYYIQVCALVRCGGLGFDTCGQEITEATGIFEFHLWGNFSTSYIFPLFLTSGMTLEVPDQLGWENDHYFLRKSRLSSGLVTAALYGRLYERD
Protocol: A heterogenous assay is based on the use of streptavidin-specific antibody, streptavidin and biotinidase substrates (compounds 3, 5 and 7). Accordingly, 200 μA of anti-streptavidin antibody (1 μg per well, Novus Biologicals cat. No. NB200-448) was pipetted to the wells of the microplate in coating buffer (50 mM TRIS pH 7.4+50 mM NaCl). The plate was incubated at RT for 3 h. After that the plate was washed 2 times with Delfia Wash solution. The blood spots (diameter 3.2 mm) were punched to the wells. 10 nM of biotinidase substrate was added to the wells in reaction buffer (50 mM MES pH 6, 0.05% BSA, 0.01% TWEEN, 50 mM NaCl). The plate was incubated with slow shaking at +37° C. for 2 hours. 100 μA 20 nM streptavidin in reaction buffer was added into the wells. The plate was incubated for 1 hour at RT with slow shaking. The plate was washed for 4 times with Delfia Wash solution. 200 μA of Delfia Inducer was added to the wells and incubated for 15 minutes at RT. The Eu signal was measured with a time-resolved fluorometer. The more there is biotinidase enzyme in the sample the lower the Eu signal is.

[2] = Storage stability of the substrate; assay type: physicochemical; settings: prolonged storage at ambient temperature
Protocol: Biocytin (8, 5 mg, 13 μmol) and the isothiocyanate chelate 9 (23 mg, 33 μmol) synthesized as disclosed in U.S. Pat. No. 4,920,195, were dissolved in the mixture of pyridine, water and triethylamine (9:1.5:01, v/v/v; 250 μL) and the mixture was stirred overnight at rt. The product was isolated by precipitation with acetone and purified with HPLC. Compound 10: ESI-TOF MS found, 1047.13; calcd for C40H46EuN8O12S^−1047.18.

Compound | function as a substrate for the enzyme in a biotinidase assay [1] | stability on storage [2]
O=C(O)CN(CCN(CC(=O)O)CC(Cc1ccc(NC(=O)CCCCC2SCC3NC(=O)NC32)cc1)N(CC(=O)O)CC(=O)O)CC(=O)O (stereo not drawn) [Compound 3] | does not function as a substrate | –
O=C(O)CN(CCN(CC(=O)O)CC(Cc1ccc(NC(=O)CCCCCNC(=O)CCCCC2SCC3NC(=O)NC32)cc1)N(CC(=O)O)CC(=O)O)CC(=O)O (stereo not drawn) [Compound 5] | functions as a favorable substrate | –
O=C(O)CN(CC(=O)O)Cc1cc(C#Cc2ccc(NC(=S)NC(CCCCNC(=O)CCCCC3SCC4NC(=O)NC43)C(=O)O)cc2)cc(CN(CC(=O)O)CC(=O)O)n1 (stereo not drawn) [Compound 10] | – | prone to Edman degradation
